# Measured values taken from patent US6583164B1, “Antimycotic drug composition” (Takeda Chemical Industries, Ltd., priority 1998, dated 2003).
# Test system: A. fumigatus TIMM1728
# Test: Defensive effect against experimental Aspergillosis infection in neutropenic mice (prolonging life)
# Format: in vivo
# Settings: CDF1 female mice made neutropenic with cyclophosphamide; intravenous administration, 5 times; survival recorded for 10 days after infection
# Method: Method: 6-week-old CDF1 female mice (n=5) were allowed to have neutropenia by intraperitoneally administering 200 mg/kg of cyclophosphamide, and after 4 days, 0.2 ml liquid of frozen and stored A. fumigatus TIMM1728 conidia, diluted 1000-fold, was inoculated into the tail veins of the mice (6×10^4 CFU/mouse). Compound 12 was dissolved in 5% saccharide solution (aqueous glucose solution) and intravenously administered into the mice 5 times, that is, once in 2 hours after the infection and daily twice for 2 days after the infection. The number of living mice was recorded for 10 days after the infection, to evaluate the effect of prolonging their life.
substance,measurement,value
"4-acetoxymethyl-1-[(2R,3R)-2-(2,4-difluorophenyl)-2-hydroxy-3-[2-oxo-3-[4-(1H-tetrazol-1-yl)phenyl]-1-imidazolidinyl]butyl]-1H-1,2,4-triazolium chloride [Compound 12]",Defensive effect (ED50),1.7 mg/kg
